# Results taken from PubChem BioAssay AID1963960 (Molecular Pharmacology Branch, DTP, NCI, 2024).
# System: MDA-MB-468 spheroids with HUVEC/MSC, viability
# Assay: Anticancer human tumor MDA-MB-468 cell line growth inhibition [PI3K];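 note: spheroids exposed to agents for seven days before readout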;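 for viability, T/C: 100% = DMSO vehicle control viability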
# Details: for IC50: curve of first compound; for viability, T/C: stronger effect = lower value
# Procedure, shortened: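 Complex 3D spheroids (cancer cells + endothelial HUVEC + mesenchymal stem cells); drug pairs of targeted agent x inavolisib/alpelisib/duvelisib/copanlisib; half-log series from ~Cmax, max 10 microM if Cmax unknown; endpoint viability.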
# [1] = second compound 0.0316 µM, first compound 0.0316 µM
# [2] = second compound 0.0316 µM, first compound 0.1 µM
# [3] = second compound 0.0316 µM, first compound 0.316 µM
# [4] = second compound 0.0316 µM, first compound 1 µM
# [5] = second compound 0.0316 µM, first compound 3.16 µM
# [6] = second compound 0.0316 µM, first compound 10 µM
# [7] = second compound 0.1 µM, first compound 0.0316 µM
# [8] = second compound 0.1 µM, first compound 0.1 µM
# [9] = second compound 0.1 µM, first compound 0.316 µM
# [10] = second compound 0.1 µM, first compound 1 µM
# [11] = second compound 0.1 µM, first compound 3.16 µM
# [12] = second compound 0.1 µM, first compound 10 µM
# [13] = second compound 0.316 µM, first compound 0.0316 µM
# [14] = second compound 0.316 µM, first compound 0.1 µM
# [15] = second compound 0.316 µM, first compound 0.316 µM
# [16] = second compound 0.316 µM, first compound 1 µM
# [17] = second compound 0.316 µM, first compound 3.16 µM
# [18] = second compound 0.316 µM, first compound 10 µM
# [19] = second compound 1 µM, first compound 0.0316 µM
# [20] = second compound 1 µM, first compound 0.1 µM
# [21] = second compound 1 µM, first compound 0.316 µM
# [22] = second compound 1 µM, first compound 1 µM
# [23] = second compound 1 µM, first compound 3.16 µM
# [24] = second compound 1 µM, first compound 10 µM
# [25] = second compound 3.16 µM, first compound 0.0316 µM
# [26] = second compound 3.16 µM, first compound 0.1 µM
# [27] = second compound 3.16 µM, first compound 0.316 µM
# [28] = second compound 3.16 µM, first compound 1 µM
# [29] = second compound 3.16 µM, first compound 3.16 µM
# [30] = second compound 3.16 µM, first compound 10 µM
# [31] = second compound 10 µM, first compound 0.0316 µM
# [32] = second compound 10 µM, first compound 0.1 µM
# [33] = second compound 10 µM, first compound 0.316 µM
# [34] = second compound 10 µM, first compound 1 µM
# [35] = second compound 10 µM, first compound 3.16 µM
# [36] = second compound 10 µM, first compound 10 µM
compound,measurement,setting,value
C#Cc1c(F)ccc2cc(O)cc(-c3ncc4c(N5CC6CCC(C5)N6)nc(OCC56CCCN5CC(F)C6)nc4c3F)c12 (centres undefined) + CC(Nc1ncnc2nc[nH]c12)c1cc2cccc(Cl)c2c(=O)n1-c1ccccc1,IC50,second compound 0.0316 µM,> 10 µM
same,IC50,second compound 0.1 µM,> 10 µM
same,IC50,second compound 0.316 µM,> 10 µM
same,IC50,second compound 1 µM,> 10 µM
same,IC50,second compound 3.16 µM,4.95 µM
same,IC50,second compound 10 µM,< 0.0316 µM
same,"viability, T/C",[1],104%
same,"viability, T/C",[2],94.7%
same,"viability, T/C",[3],92.3%
same,"viability, T/C",[4],92.3%
same,"viability, T/C",[5],90.5%
same,"viability, T/C",[6],62.8%
same,"viability, T/C",[7],96.5%
same,"viability, T/C",[8],91.2%
same,"viability, T/C",[9],88.6%
same,"viability, T/C",[10],90.4%
same,"viability, T/C",[11],81.2%
same,"viability, T/C",[12],57.1%
same,"viability, T/C",[13],78.7%
same,"viability, T/C",[14],67.7%
same,"viability, T/C",[15],70.8%
same,"viability, T/C",[16],83.6%
same,"viability, T/C",[17],75.2%
same,"viability, T/C",[18],54.5%
same,"viability, T/C",[19],68%
same,"viability, T/C",[20],72.8%
same,"viability, T/C",[21],63.7%
same,"viability, T/C",[22],70.5%
same,"viability, T/C",[23],62%
same,"viability, T/C",[24],52.1%
same,"viability, T/C",[25],63.4%
same,"viability, T/C",[26],57.5%
same,"viability, T/C",[27],55.3%
same,"viability, T/C",[28],60%
same,"viability, T/C",[29],54.3%
same,"viability, T/C",[30],43%
same,"viability, T/C",[31],39.2%
same,"viability, T/C",[32],39.8%
same,"viability, T/C",[33],35.5%
same,"viability, T/C",[34],40.4%
same,"viability, T/C",[35],38.6%
same,"viability, T/C",[36],28.2%
C=CC(=O)N1CCN(c2nc(=O)n(-c3c(C)ccnc3C(C)C)c3nc(-c4c(O)cccc4F)c(F)cc23)C(C)C1 (centres undefined) + CC(Nc1ncnc2nc[nH]c12)c1cc2cccc(Cl)c2c(=O)n1-c1ccccc1,IC50,second compound 0.0316 µM,> 10 µM
same,IC50,second compound 0.1 µM,> 10 µM
same,IC50,second compound 0.316 µM,> 10 µM
same,IC50,second compound 1 µM,> 10 µM
same,IC50,second compound 3.16 µM,> 10 µM
same,IC50,second compound 10 µM,< 0.0316 µM
same,"viability, T/C",[1],88.1%
same,"viability, T/C",[2],93%
same,"viability, T/C",[3],99.4%
same,"viability, T/C",[4],99.3%
same,"viability, T/C",[5],86.1%
same,"viability, T/C",[6],74.2%
same,"viability, T/C",[7],89.3%
same,"viability, T/C",[8],79.8%
same,"viability, T/C",[9],83.7%
same,"viability, T/C",[10],94.2%
same,"viability, T/C",[11],91.1%
same,"viability, T/C",[12],73.7%
same,"viability, T/C",[13],70.4%
same,"viability, T/C",[14],74.4%
same,"viability, T/C",[15],84.3%
same,"viability, T/C",[16],94.7%
same,"viability, T/C",[17],76.9%
same,"viability, T/C",[18],61.4%
same,"viability, T/C",[19],70.6%
same,"viability, T/C",[20],61.4%
same,"viability, T/C",[21],82.2%
same,"viability, T/C",[22],84.6%
same,"viability, T/C",[23],84.4%
same,"viability, T/C",[24],60.6%
same,"viability, T/C",[25],54.5%
same,"viability, T/C",[26],57.1%
same,"viability, T/C",[27],61.4%
same,"viability, T/C",[28],68.5%
same,"viability, T/C",[29],70.6%
same,"viability, T/C",[30],51%
same,"viability, T/C",[31],41%
same,"viability, T/C",[32],46.7%
same,"viability, T/C",[33],47.1%
same,"viability, T/C",[34],51.1%
same,"viability, T/C",[35],50.1%
same,"viability, T/C",[36],37.4%
